Where a name gives a salt, the structure may show the parent alone.
Target: T1, human NHE3 (Homo sapiens, UniProt P48764)
T1 sequence (P48764 26-834): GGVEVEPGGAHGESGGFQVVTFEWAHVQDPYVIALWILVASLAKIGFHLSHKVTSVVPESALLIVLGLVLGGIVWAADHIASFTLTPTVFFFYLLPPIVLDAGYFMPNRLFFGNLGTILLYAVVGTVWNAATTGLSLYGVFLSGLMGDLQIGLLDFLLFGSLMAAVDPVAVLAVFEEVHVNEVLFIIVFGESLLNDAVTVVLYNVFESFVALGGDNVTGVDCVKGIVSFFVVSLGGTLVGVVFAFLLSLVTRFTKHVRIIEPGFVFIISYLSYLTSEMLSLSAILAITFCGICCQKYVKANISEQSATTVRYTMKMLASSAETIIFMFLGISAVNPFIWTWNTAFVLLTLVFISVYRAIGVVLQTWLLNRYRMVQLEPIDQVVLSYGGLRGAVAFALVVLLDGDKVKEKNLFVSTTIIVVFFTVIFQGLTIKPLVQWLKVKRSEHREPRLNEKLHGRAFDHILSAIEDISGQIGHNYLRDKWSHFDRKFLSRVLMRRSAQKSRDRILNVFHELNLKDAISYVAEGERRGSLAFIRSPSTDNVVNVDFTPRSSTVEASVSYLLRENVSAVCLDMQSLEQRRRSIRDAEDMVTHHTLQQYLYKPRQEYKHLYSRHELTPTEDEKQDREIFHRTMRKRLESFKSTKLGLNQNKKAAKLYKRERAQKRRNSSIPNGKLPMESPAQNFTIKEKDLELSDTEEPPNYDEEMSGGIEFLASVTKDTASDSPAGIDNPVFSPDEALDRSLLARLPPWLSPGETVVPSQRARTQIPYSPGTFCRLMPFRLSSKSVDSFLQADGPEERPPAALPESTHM
Experiment: NHE3 inhibition test (recovery of intracellular pH in cell line stably expressing human NHE3)
Format: cell-based
Details: OK cells deficient in endogenous NHE stably expressing human NHE3; BCECF fluorescence, initial rate of pH recovery; read-out: human NHE3 inhibitory activity IC50
How it was run: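 IC50 is the concentration halving the initial rate of Na-triggered intracellular pH recovery, tracked by BCECF fluorescence, in NH4Cl-acidified cells. Cells: NHE-deficient OK line stably transfected with human NHE3; compound added in Na-free pH 7.4 buffer.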

Compound | IC50 [nM]
CN1Cc2c(Cl)cc(Cl)cc2[C@H](c2cccc(-c3cn(CCOCCOCCNC(=O)NCCCCNC(=O)NCCOCCOCCn4cc(-c5cccc([C@@H]6CN(C)Cc7c(Cl)cc(Cl)cc76)c5)nn4)nn3)c2)C1 [Example 6-1, 1,1′-Butane-1,4-diylbis[3-(2-{2-[2-(4-{3-[(4S)-6,8-dichloro-2-methyl-1,2,3,4-tetrahydroisoquinolin-4-yl]phenyl}-1H-1,2,3-triazol-1-yl)ethoxy]ethoxy}ethyl)urea]] | 2.4
CN1Cc2c(Cl)cc(Cl)cc2[C@H](c2cccc(-c3nnc(CCOCCOCCOCCNC(=O)[C@@H](O)[C@H](O)[C@H](O)[C@@H](O)C(=O)NCCOCCOCCOCCc4nnc(-c5cccc([C@@H]6CN(C)Cc7c(Cl)cc(Cl)cc76)c5)[nH]4)[nH]3)c2)C1 [Example 8-24, (2R,3S,4R,5S)-N,N′-Bis[2-(2-{2-[2-(5-{3-[(4S)-6,8-dichloro-2-methyl-1,2,3,4-tetrahydroisoquinolin-4-yl]phenyl}-4H-1,2,4-triazol-3-yl)ethoxy]ethoxy}ethoxy)ethyl]-2,3,4,5-tetrahydroxyhexanediamide hydrochloride] | 3.4
1,3-Bis[14-(4-{3-[(4S)-6,8-dichloro-2-methyl-1,2,3,4-tetrahydroisoquinolin-4-yl]phenyl}-1H-1,2,3-triazol-1-yl)-3,6,9,12-tetraoxatetradec-1-yl]urea hydrochloride [Example 7-44] | 7.6
Cc1nnc(-c2cccc([C@@H]3CN(C)Cc4c(Cl)cc(Cl)cc43)c2)[nH]1 [Example 3-1, (4S)-6,8-Dichloro-2-methyl-4-[3-(3-methyl-1H-1,2,4-triazol-5-yl)phenyl]-1,2,3,4-tetrahydroisoquinoline hydrochloride] | 49.1
CN1Cc2c(Cl)cc(Cl)cc2[C@H](c2cccc(-c3cc(OCCOCCOCCNC(=O)NCCCCNC(=O)NCCOCCOCCOc4cc(-c5cccc([C@@H]6CN(C)Cc7c(Cl)cc(Cl)cc76)c5)ncn4)ncn3)c2)C1 [Example 7-12, 1,1′-Butane-1,4-diylbis {3-[2-(2-{2-[(6-{3-[(4S)-6,8-dichloro-2-methyl-1,2,3,4-tetrahydroisoquinolin-4-yl]phenyl}pyrimidin-4-yl)oxy]ethoxy}ethoxy)ethyl]urea} tetrahydrochloride] | 7.5
CN1Cc2c(Cl)cc(Cl)cc2[C@H](c2cccc(-c3cn(CCOCCOCCNC(=O)[C@H](O)[C@@H](O)C(=O)NCCOCCOCCn4cc(-c5cccc([C@@H]6CN(C)Cc7c(Cl)cc(Cl)cc76)c5)nn4)nn3)c2)C1 [Example 6-6, (2R,3R)—N,N′-Bis(2-{2-[2-(4-{3-[(4S)-6,8-dichloro-2-methyl-1,2,3,4-tetrahydroisoquinolin-4-yl]phenyl}-1H-1,2,3-triazol-1-yl)ethoxy]ethoxy}ethyl)-2,3-dihydroxybutanediamide hydrochloride] | 75
CN1Cc2c(Cl)cc(Cl)cc2[C@H](c2cccc(-c3cn(CCOCCOCCOCCNC(=O)NCCNC(=O)NCCNC(=O)NCCOCCOCCOCCn4cc(-c5cccc([C@@H]6CN(C)Cc7c(Cl)cc(Cl)cc76)c5)nn4)nn3)c2)C1 [Example 6-13, 1,1′-[Carbonylbis(iminoethane-2,1-diyl)]bis {3-[2-(2-{2-[2-(4-{3-[(4S)-6,8-dichloro-2-methyl-1,2,3,4-tetrahydroisoquinolin-4-yl]phenyl}-1H-1,2,3-triazol-1-yl)ethoxy]ethoxy}ethoxy)ethyl]urea}hydrochloride] | 2.1
CN1Cc2c(Cl)cc(Cl)cc2[C@H](c2cccc(-c3cn(CCOCCOCCOCCNC(=O)NCCCCCCNC(=O)NCCOCCOCCOCCn4cc(-c5cccc([C@@H]6CN(C)Cc7c(Cl)cc(Cl)cc76)c5)nn4)nn3)c2)C1 [Example 7-27, 1,1′-Hexane-1,6-diylbis {3-[2-(2-{2-[2-(4-{3-[(4S)-6,8-dichloro-2-methyl-1,2,3,4-tetrahydroisoquinolin-4-yl]phenyl}-1H-1,2,3-triazol-1-yl)ethoxy]ethoxy}ethoxy)ethyl]urea}hydrochloride] | 11.3
CN1Cc2c(Cl)cc(Cl)cc2[C@H](c2cccc(-c3ccc(NCCOCCOCCNC(=O)Nc4ccc(NC(=O)NCCOCCOCCNc5ccc(-c6cccc([C@@H]7CN(C)Cc8c(Cl)cc(Cl)cc87)c6)cn5)cc4)nc3)c2)C1 [Example 7-8, 1,1′-Benzene-1,4-diylbis{3-[2-(2-{2-[(5-{3-[(4S)-6,8-dichloro-2-methyl-1,2,3,4-tetrahydroisoquinolin-4-yl]phenyl}pyridin-2-yl)amino]ethoxy}ethoxy)ethyl]urea}] | 1080
CN1Cc2c(Cl)cc(Cl)cc2[C@H](c2cccc(-c3cnnc(NCCOCCOCCOCCNC(=O)NCCCCNC(=O)NCCOCCOCCOCCNc4cc(-c5cccc([C@@H]6CN(C)Cc7c(Cl)cc(Cl)cc76)c5)cnn4)c3)c2)C1 [Example 7-32, 1,1′-Butane-1,4-diylbis(3-{2-[2-(2-{2-[(5-{3-[(4S)-6,8-dichloro-2-methyl-1,2,3,4-tetrahydroisoquinolin-4-yl]phenyl}pyridazin-3-yl)amino]ethoxy}ethoxy)ethoxy]ethyl}urea) tetrahydrochloride] | 18.1
CN1Cc2c(Cl)cc(Cl)cc2[C@H](c2cccc(-c3ccc(NCCOCCOCCNC(=O)COCC(=O)NCCOCCOCCNc4ccc(-c5cccc([C@@H]6CN(C)Cc7c(Cl)cc(Cl)cc76)c5)cn4)nc3)c2)C1 [Example 8-7, 1-[(5-{3-[(4S)-6,8-Dichloro-2-methyl-1,2,3,4-tetrahydroisoquinolin-4-yl]phenyl}pyridin-2-yl)amino]-N-[2-(2-{2-[(5-{3-[(4S)-6,8-dichloro-2-methyl-1,2,3,4-tetrahydroisoquinolin-4-yl]phenyl}pyridin-2-yl)amino]ethoxy}ethoxy)ethyl]-10-oxo-3,6,12-trioxa-9-azatetradecan-14-amide hydrochloride] | 41.7
CN1Cc2c(Cl)cc(Cl)cc2[C@H](c2cccc(-c3ccncc3)c2)C1 [Example 1-1, (4S)-6,8-Dichloro-2-methyl-4-[3-(pyridin-4-yl)phenyl]-1,2,3,4-tetrahydroisoquinoline] | 217
CN1Cc2c(Cl)cc(Cl)cc2[C@H](c2cccc(-c3cn(CCOCCOCCNC(=O)[C@@H](O)[C@H](O)[C@H](O)[C@@H](O)C(=O)NCCOCCOCCn4cc(-c5cccc([C@@H]6CN(C)Cc7c(Cl)cc(Cl)cc76)c5)nn4)nn3)c2)C1 [Example 6-7, (2R,3S,4R,5S)—N,N′-Bis(2-{2-[2-(4-{3-[(4S)-6,8-dichloro-2-methyl-1,2,3,4-tetrahydroisoquinolin-4-yl]phenyl}-1H-1,2,3-triazol-1-yl)ethoxy]ethoxy}ethyl)-2,3,4,5-tetrahydroxyhexanediamide hydrochloride] | 1.1
CN1Cc2c(Cl)cc(Cl)cc2[C@H](c2cccc(-c3ccc(NCCOCCOCCOCCNC(=O)NCCCCNC(=O)NCCOCCOCCOCCNc4ccc(-c5cccc([C@@H]6CN(C)Cc7c(Cl)cc(Cl)cc76)c5)cn4)nc3)c2)C1 [Example 7-17, 1,1′-Butane-1,4-diylbis(3-{2-[2-(2-{2-[(5-{3-[(4S)-6,8-dichloro-2-methyl-1,2,3,4-tetrahydroisoquinolin-4-yl]phenyl}pyridin-2-yl)amino]ethoxy}ethoxy)ethoxy]ethyl}urea) hydrochloride] | 4.4
CN1Cc2c(Cl)cc(Cl)cc2[C@H](c2cccc(-c3ccco3)c2)C1 [Example 1-23, (4S)-6,8-Dichloro-4-[3-(furan-2-yl)phenyl]-2-methyl-1,2,3,4-tetrahydroisoquinoline] | 3220
CN1Cc2c(Cl)cc(Cl)cc2[C@H](c2cccc(-c3ncco3)c2)C1 [Example 1-22, (4S)-6,8-Dichloro-2-methyl-4-[3-(1,3-oxazol-2-yl)phenyl]-1,2,3,4-tetrahydroisoquinoline hydrochloride] | 306
CN1Cc2c(Cl)cc(Cl)cc2[C@H](c2cccc(-c3cc(NCCOCCOCCOCCNC(=O)[C@H](O)[C@@H](O)C(=O)NCCOCCOCCOCCNc4cc(-c5cccc([C@@H]6CN(C)Cc7c(Cl)cc(Cl)cc76)c5)ncn4)ncn3)c2)C1 [Example 8-10, (2R,3R)-N,N′-Bis{2-[2-(2-{2-[(6-{3-[(4S)-6,8-dichloro-2-methyl-1,2,3,4-tetrahydroisoquinolin-4-yl]phenyl}pyrimidin-4-yl)amino]ethoxy}ethoxy)ethoxy]ethyl}-2,3-dihydroxybutanediamide hydrochloride] | 3.2
CN1Cc2c(Cl)cc(Cl)cc2[C@H](c2cccc(-c3cn(CCOCCOCCNC(=O)CCC(=O)NCCOCCOCCn4cc(-c5cccc([C@@H]6CN(C)Cc7c(Cl)cc(Cl)cc76)c5)nn4)nn3)c2)C1 [Example 6-3, N,N′-Bis(2-{2-[2-(4-{3-[(4S)-6,8-dichloro-2-methyl-1,2,3,4-tetrahydroisoquinolin-4-yl]phenyl}-1H-1,2,3-triazol-1-yl)ethoxy]ethoxy}ethyl)butanediamide hydrochloride] | 301

From patent US9932331B2, “Phenyl tetrahydroisoquinoline compound substituted with heteroaryl” (TAISHO PHARMACEUTICAL CO., LTD, priority 2014, dated 2018)
